# ± gives the expanded uncertainty stated by the source.
# Assay: molar heat capacity at saturation pressure
# Conditions: Liquid, Large sample (1 g) DSC
smiles,measurement,setting,value
CCOC(C)(C)C [2-ethoxy-2-methylpropane],molar heat capacity,277.14 K,211.4 ± 3.3 J/K/mol
same,molar heat capacity,281.17 K,213.3 ± 3.3 J/K/mol
same,molar heat capacity,283.15 K,214.2 ± 3.3 J/K/mol
same,molar heat capacity,285.16 K,215.2 ± 3.3 J/K/mol
same,molar heat capacity,287.15 K,216 ± 3.3 J/K/mol
same,molar heat capacity,289.16 K,216.9 ± 3.4 J/K/mol
same,molar heat capacity,291.14 K,217.7 ± 3.4 J/K/mol
same,molar heat capacity,293.14 K,218.5 ± 3.4 J/K/mol
same,molar heat capacity,295.15 K,219.3 ± 3.4 J/K/mol
same,molar heat capacity,297.14 K,220.1 ± 3.4 J/K/mol
same,molar heat capacity,299.15 K,220.9 ± 3.4 J/K/mol
same,molar heat capacity,301.14 K,221.7 ± 3.4 J/K/mol
same,molar heat capacity,303.16 K,222.6 ± 3.4 J/K/mol
same,molar heat capacity,305.14 K,223.3 ± 3.5 J/K/mol
same,molar heat capacity,307.15 K,224.2 ± 3.5 J/K/mol
same,molar heat capacity,309.14 K,225.3 ± 3.5 J/K/mol
same,molar heat capacity,311.15 K,225.9 ± 3.5 J/K/mol
same,molar heat capacity,313.14 K,226.7 ± 3.5 J/K/mol
same,molar heat capacity,315.16 K,227.6 ± 3.5 J/K/mol
same,molar heat capacity,317.14 K,228.6 ± 3.5 J/K/mol
same,molar heat capacity,319.15 K,229.5 ± 3.6 J/K/mol
same,molar heat capacity,321.14 K,230.1 ± 3.6 J/K/mol
same,molar heat capacity,323.15 K,231 ± 3.6 J/K/mol
same,molar heat capacity,325.14 K,231.7 ± 3.6 J/K/mol
same,molar heat capacity,327.16 K,232.6 ± 3.6 J/K/mol
same,molar heat capacity,329.15 K,233.3 ± 3.6 J/K/mol
same,molar heat capacity,331.16 K,234.2 ± 3.6 J/K/mol
same,molar heat capacity,333.15 K,235.1 ± 3.6 J/K/mol
same,molar heat capacity,335.16 K,235.9 ± 3.7 J/K/mol
same,molar heat capacity,338.16 K,237.1 ± 3.7 J/K/mol
same,molar heat capacity,339.14 K,237.4 ± 3.7 J/K/mol
same,molar heat capacity,341.15 K,238.1 ± 3.7 J/K/mol
CCC(C)(C)OC [2-methoxy-2-methylbutane],molar heat capacity,279.16 K,206.8 ± 3.2 J/K/mol
same,molar heat capacity,281.15 K,207.7 ± 3.2 J/K/mol
same,molar heat capacity,283.16 K,208.5 ± 3.2 J/K/mol
same,molar heat capacity,285.16 K,209.3 ± 3.2 J/K/mol
same,molar heat capacity,287.16 K,210.2 ± 3.3 J/K/mol
same,molar heat capacity,289.16 K,211 ± 3.3 J/K/mol
same,molar heat capacity,291.17 K,211.7 ± 3.3 J/K/mol
same,molar heat capacity,293.15 K,212.5 ± 3.3 J/K/mol
same,molar heat capacity,295.15 K,213.5 ± 3.3 J/K/mol
same,molar heat capacity,297.16 K,214.5 ± 3.3 J/K/mol
same,molar heat capacity,299.16 K,215.3 ± 3.3 J/K/mol
same,molar heat capacity,301.14 K,216.1 ± 3.3 J/K/mol
same,molar heat capacity,303.14 K,216.9 ± 3.4 J/K/mol
same,molar heat capacity,305.15 K,217.8 ± 3.4 J/K/mol
same,molar heat capacity,307.15 K,218.3 ± 3.4 J/K/mol
same,molar heat capacity,309.15 K,219.1 ± 3.4 J/K/mol
same,molar heat capacity,311.16 K,220.1 ± 3.4 J/K/mol
same,molar heat capacity,313.16 K,220.6 ± 3.4 J/K/mol
same,molar heat capacity,315.13 K,221.3 ± 3.4 J/K/mol
same,molar heat capacity,317.13 K,222.1 ± 3.4 J/K/mol
same,molar heat capacity,319.14 K,222.8 ± 3.5 J/K/mol
same,molar heat capacity,321.14 K,223.5 ± 3.5 J/K/mol
same,molar heat capacity,323.14 K,224.5 ± 3.5 J/K/mol
same,molar heat capacity,325.15 K,225 ± 3.5 J/K/mol
same,molar heat capacity,327.16 K,225.7 ± 3.5 J/K/mol
same,molar heat capacity,329.16 K,226.7 ± 3.5 J/K/mol
same,molar heat capacity,331.17 K,227.4 ± 3.5 J/K/mol
same,molar heat capacity,333.13 K,228.1 ± 3.5 J/K/mol
same,molar heat capacity,335.14 K,228.9 ± 3.5 J/K/mol
same,molar heat capacity,337.14 K,229.7 ± 3.6 J/K/mol
same,molar heat capacity,339.15 K,230.4 ± 3.6 J/K/mol
same,molar heat capacity,341.16 K,231 ± 3.6 J/K/mol
same,molar heat capacity,343.17 K,231.9 ± 3.6 J/K/mol
same,molar heat capacity,345.14 K,232.6 ± 3.6 J/K/mol
same,molar heat capacity,347.14 K,233.5 ± 3.6 J/K/mol
same,molar heat capacity,349.15 K,234.3 ± 3.6 J/K/mol
same,molar heat capacity,351.15 K,234.9 ± 3.6 J/K/mol
same,molar heat capacity,353.16 K,235.7 ± 3.7 J/K/mol
same,molar heat capacity,355.14 K,236.4 ± 3.7 J/K/mol
COC(C)(C)C [2-methoxy-2-methylpropane],molar heat capacity,277.15 K,180.9 ± 2.8 J/K/mol
same,molar heat capacity,279.15 K,181.4 ± 2.8 J/K/mol
same,molar heat capacity,281.16 K,182.3 ± 2.8 J/K/mol
same,molar heat capacity,283.15 K,183.1 ± 2.8 J/K/mol
same,molar heat capacity,285.15 K,183.8 ± 2.8 J/K/mol
same,molar heat capacity,287.14 K,184.4 ± 2.9 J/K/mol
same,molar heat capacity,289.16 K,185.3 ± 2.9 J/K/mol
same,molar heat capacity,291.15 K,186 ± 2.9 J/K/mol
same,molar heat capacity,293.16 K,186.8 ± 2.9 J/K/mol
same,molar heat capacity,295.15 K,187.7 ± 2.9 J/K/mol
same,molar heat capacity,297.14 K,188.3 ± 2.9 J/K/mol
same,molar heat capacity,299.14 K,189 ± 2.9 J/K/mol
same,molar heat capacity,301.16 K,189.7 ± 2.9 J/K/mol
same,molar heat capacity,303.16 K,190.4 ± 3 J/K/mol
same,molar heat capacity,305.15 K,191.1 ± 3 J/K/mol
same,molar heat capacity,307.15 K,191.8 ± 3 J/K/mol
same,molar heat capacity,309.16 K,192.6 ± 3 J/K/mol
same,molar heat capacity,311.16 K,193.2 ± 3 J/K/mol
same,molar heat capacity,313.15 K,193.9 ± 3 J/K/mol
same,molar heat capacity,315.15 K,194.6 ± 3 J/K/mol
same,molar heat capacity,317.14 K,195.2 ± 3 J/K/mol
same,molar heat capacity,319.16 K,196 ± 3 J/K/mol
same,molar heat capacity,321.15 K,196.5 ± 3 J/K/mol
same,molar heat capacity,323.15 K,197.3 ± 3.1 J/K/mol
same,molar heat capacity,325.15 K,198 ± 3.1 J/K/mol
CC(C)OC(C)C [diisopropyl ether],molar heat capacity,277.17 K,207.7 ± 3.2 J/K/mol
same,molar heat capacity,279.16 K,208.5 ± 3.2 J/K/mol
same,molar heat capacity,281.15 K,209.4 ± 3.2 J/K/mol
same,molar heat capacity,283.14 K,210.4 ± 3.3 J/K/mol
same,molar heat capacity,285.16 K,211.3 ± 3.3 J/K/mol
same,molar heat capacity,287.16 K,212.2 ± 3.3 J/K/mol
same,molar heat capacity,289.15 K,213.1 ± 3.3 J/K/mol
same,molar heat capacity,291.17 K,214 ± 3.3 J/K/mol
same,molar heat capacity,293.15 K,214.8 ± 3.3 J/K/mol
same,molar heat capacity,295.16 K,215.5 ± 3.3 J/K/mol
same,molar heat capacity,297.16 K,216.3 ± 3.4 J/K/mol
same,molar heat capacity,299.16 K,217.2 ± 3.4 J/K/mol
same,molar heat capacity,301.16 K,218 ± 3.4 J/K/mol
same,molar heat capacity,303.15 K,218.7 ± 3.4 J/K/mol
same,molar heat capacity,305.14 K,219.5 ± 3.4 J/K/mol
same,molar heat capacity,307.14 K,220.3 ± 3.4 J/K/mol
same,molar heat capacity,309.16 K,221 ± 3.4 J/K/mol
same,molar heat capacity,311.15 K,222 ± 3.4 J/K/mol
same,molar heat capacity,313.15 K,222.7 ± 3.5 J/K/mol
same,molar heat capacity,315.15 K,223.6 ± 3.5 J/K/mol
same,molar heat capacity,317.17 K,224.4 ± 3.5 J/K/mol
same,molar heat capacity,319.16 K,225.1 ± 3.5 J/K/mol
same,molar heat capacity,321.15 K,225.9 ± 3.5 J/K/mol
same,molar heat capacity,323.14 K,226.7 ± 3.5 J/K/mol
same,molar heat capacity,325.14 K,227.4 ± 3.5 J/K/mol
same,molar heat capacity,327.13 K,228.3 ± 3.5 J/K/mol
same,molar heat capacity,329.16 K,229 ± 3.5 J/K/mol
same,molar heat capacity,331.15 K,229.9 ± 3.6 J/K/mol
same,molar heat capacity,333.15 K,230.5 ± 3.6 J/K/mol
same,molar heat capacity,335.14 K,231.4 ± 3.6 J/K/mol
same,molar heat capacity,337.14 K,232.2 ± 3.6 J/K/mol

# From the NIST ThermoML archive (doi:10.1021/je0340699)
